Data from US5073562A, “Alkoxy-substituted dihydrobenzopyran-2-carboxylic acids and derivatives thereof” (G. D. Searle & Co., priority 1990, dated 1991).

How the values were obtained:
[1] = test system: Human neutrophils (LTB4 chemotaxis); assay: Modified Boyden Chamber Chemotaxis, LTB4; format: cell-based; design: key to Chemotaxis LTB4, inactive at the dose tested: IA: Inactive at the dose tested; details: for Relative Potency, Chemotaxis LTB4: potency relative to the compound of Example 1(b), defined as 1.0, 3×10^-8 M LTB4, 40-90 minute, 37° C.
Description: (§1) Human neutrophils were isolated from citrated peripheral blood using standard techniques of dextran sedimentation, followed by centrifugation on Histopaque® sterile solution (Sigma) or Ficoll-paque® (Pharmacia) and hypotonic lysis of erythrocytes. A final cell suspension of 3.4×10^6 neutrophils/ml of HEPES-buffered Hanks' balanced salt solution (HBSS, pH 7.3) was added to the upper well (0.8 ml) of a modified Boyden chamber (blind well). […] The number of neutrophils migrating into the lower chamber in the absence of chemoattractant was subtracted from the number of cells migrating in the presence of a chemoattractant. Inhibition of chemotaxis by test compounds was expressed as percent inhibition relative to uninhibited control. […] Pat. No. 4,889,871.

[2] = test system: Human neutrophils (fMLP chemotaxis); assay: Modified Boyden Chamber Chemotaxis, fMLP; format: cell-based; details: for Relative Potency, Chemotaxis fMLP: potency relative to the compound of Example 1(b), defined as 1.0
Description: as §1

LTB4 Receptor = molecular target: T1, LTB4 Receptor (Homo sapiens, UniProt Q15722); assay: LTB4 Receptor Binding Assay ((3H) LTB4, neutrophils); details: potency relative to the compound of Example 1(b), defined as 1.0, 0.6×10^-9 M (3H) LTB4, 0° C., 45 minutes
T1 construct: Neutrophils were purified from venous blood of normal human donors; endogenous in cells; host or cells: human peripheral blood neutrophils (purity >95%)
T1 sequence (Q15722 whole entry): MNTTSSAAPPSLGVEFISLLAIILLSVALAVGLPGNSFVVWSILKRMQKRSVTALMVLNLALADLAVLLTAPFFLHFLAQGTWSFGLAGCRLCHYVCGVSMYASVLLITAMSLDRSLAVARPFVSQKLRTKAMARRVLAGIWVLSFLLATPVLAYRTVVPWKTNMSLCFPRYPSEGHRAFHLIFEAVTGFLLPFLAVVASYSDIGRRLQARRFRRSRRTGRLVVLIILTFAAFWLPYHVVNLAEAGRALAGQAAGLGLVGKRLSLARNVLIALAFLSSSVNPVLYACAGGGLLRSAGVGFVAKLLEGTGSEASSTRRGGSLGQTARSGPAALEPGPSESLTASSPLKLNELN
Description: The incubation was carried out at 0° C. for 45 minutes and terminated by adding 5 ml of ice-cold HBSS followed by rapid filtration of the incubation mixture under vacuum through GF/C glass fiber filters. The filters were further washed with 10 ml HBSS and radioactivity was determined. […] All data refer to specific binding. […] Pat. No. 4,889,871.

IC50 ([1]; Homo sapiens, Neutrophil, value in parentheses, 3×10^-8 M LTB4) [nM]	IC50 ([2]; Homo sapiens, Neutrophil, value in parentheses) [µM]	Relative Potency, LTB4 Receptor Binding (LTB4 Receptor)	SMILES	Relative Potency, Chemotaxis LTB4 [1]	Relative Potency, Chemotaxis fMLP [2]	Chemotaxis LTB4, inactive at the dose tested ([1]; dose not given, 3×10^-8 M LTB4)
1800	5.4		CCCc1c(OCCCOc2ccc(C(C)=O)c(OC)c2CCC)ccc2c1OC(C(=O)O)CC2 (centres unmarked) [Example 1(b), 7-[3-(4-acetyl-3-methoxy-2-propylphenoxy)propoxy]-3,4-dihydro-8-propyl-2H-1-benzopyran-2-carboxylic acid, reference compound]			
		4.0	CCCc1c(OCCCOc2ccc(-c3cocn3)c(OC)c2CCC)ccc2c1OC(C(=O)O)CC2 (centres unmarked) [Example 5, 3,4-Dihydro-7-[3-[3-methoxy-4-(4-oxazolyl)-2-propylphenoxy]propoxy]-8-propyl-2H-1-benzopyran-2-carboxylic acid]	2.2	0.73	
		2.65	CCCc1c(OCCCOc2ccc(-c3c[nH]c(SCc4ccccc4)n3)c(OC)c2CCC)ccc2c1OC(C(=O)O)CC2 (centres unmarked) [Example 8, 3,4-Dihydro-7-[3-[3-methoxy-4-[2-[(phenylmethyl)thio]-1H-imidazol-4-yl]-2-propylphenoxy]propoxy]-8-propyl-2H-1-benzopyran-2-carboxylic acid]	1.86	2.0	
		1.0	CCCc1c(OCCCOc2ccc(-c3c[nH]cn3)c(OC)c2CCC)ccc2c1OC(C(=O)O)CC2 (centres unmarked) [Example 9]	0.66	0.45	
		1.56	CCCc1c(OCCCOc2ccc(-c3csc(N)n3)c(OC)c2CCC)ccc2c1OC(C(=O)O)CC2 (centres unmarked) [Example 10, 7-[3-[4-(2-amino-4-thiazolyl)3-methoxy-2propylphenoxy]propoxy]3,4-dihydro-8-propyl-2H-1-benzopyran-2-carboxylic acid]	0.63	1.4	
		4.5	CCCc1c(OCCCOc2ccc(-c3cscn3)c(OC)c2CCC)ccc2c1OC(C(=O)O)CC2 (centres unmarked) [Example 12, 3,4-dihydro-7-[3-[3-methoxy-2-propyl-4-(4-thiazolyl)phenoxy]-propoxy]-8-propyl-2H-1-benzopyran-2-carboxylic acid]	3.0	1.1	
		0.47	CCCc1c(OCCCOc2ccc(-c3coc(C)n3)c(OC)c2CCC)ccc2c1OC(C(=O)O)CC2 (centres unmarked) [Example 14, 3,4-dihydro-7-[3-[3-methoxy-4-(2-methyl-4-oxazolyl)-2-propylphenoxy]propoxy]-8-propyl-2H-1-benzopyran-2-carboxylic acid]	< 0.1		
		11.6	C=CCc1c(OCCCOc2ccc3c(c2CCC)OC(C(=O)O)CC3)ccc(-c2cscn2)c1OC (centres unmarked) [Example 17, 3,4-dihydro-7-[3-[3-methoxy-2-(2-propenyl)-4-(4-thiazolyl)-phenoxy]propoxy]-8-propyl-2H-1-benzopyran-2-carboxylic acid]	8.3	1.9	
		0.31	CCCc1c(OCCCOc2ccc(-c3csc(OC)n3)c(OC)c2CCC)ccc2c1OC(C(=O)O)CC2 (centres unmarked) [Example 24, 3,4-Dihydro-7-[3-[3-methoxy-4-(2-methoxy-4-thiazolyl)-2-propylphenoxy]propoxy]-8-propyl-2H-1-benzopyran-2-carboxylic acid]	< 0.23		
		0.51	CCCc1c(OCCCOc2ccc(-c3csc(=S)[nH]3)c(OC)c2CCC)ccc2c1OC(C(=O)O)CC2 (centres unmarked) [Example 26, 3,4-Dihydro-7-[3-[4-(2,3-dihydro-2-thioxo-4-thiazolyl)-3-methoxy-2-propylphenoxy]propoxy]-8-propyl-2H-1-benzopyran-2-carboxylic acid]			
		0.19	CCCc1c(OCCCOc2ccc(-c3csc(SC)n3)c(OC)c2CCC)ccc2c1OC(C(=O)O)CC2 (centres unmarked) [Example 28]	0.05		
		0.02	CCCc1c(OCCCOc2ccc(-c3csc(SCc4ccccc4)n3)c(OC)c2CCC)ccc2c1OC(C(=O)O)CC2 (centres unmarked) [Example 29]			IA
